In patent US12390483B2, “Compounds and methods for treating neurological and cardiovascular conditions” (Astrocyte Pharmaceuticals, Inc., priority 2016, dated 2025):
Values belong to the compound of their own block, whether it stands above or below them.

Columns and labels:
[1] = Stability of MRS2365 incubated in phosphate-buffered saline; type: physicochemical
[2] = In vitro stability and metabolite scouting of MRS2365 in human whole blood; type: in vitro ADME; details: 100 μM in human whole blood, lithium heparin as anti-coagulant
Description: Whole blood was obtained from male CD-1 mice and human volunteers at Seventh Wave Laboratories (Maryland Heights, MO). Plasma and blood samples were prepared using either EDTA (1 mM) or lithium heparin as anticoagulants.
Blood sample aliquots were obtained at 0, 1, 2.5, 7.5, 10 and 30 minutes and placed in microtainer tubes. For metabolite scouting analyses, MRS2365 was incubated in heparinized human whole blood at a concentration of 100 μM for 10 or 30 minutes (FIG. 10). In all studies, plasma was immediately prepared by centrifugation at 4° C., placed in microtainer tubes, frozen on dry ice and stored at −80° C. until analysis. […]
Plasma and blood samples were also qualitatively analyzed for MRS2365 metabolites utilizing a LC-MS/MS-based “metabolite scouting” protocol. […] Blood and plasma samples were analyzed by both positive- and negative-ion LC/MS-MS for parent compound and metabolites as it was anticipated that the phosphorylated compounds would preferentially generate negative ions while the riboside MRS4322 would preferentially generate positive ions. In positive-ion mode, extracted ion chromatograms monitored masses in the range of 323.7-324.7 and 403.7-404.7 to scout for MRS4322 and MRS2347, respectively. Any ion peaks in these ranges were further analyzed to generate product ion spectra for these ion chromatogram peaks. […]

[3] = Pharmacokinetics of MRS4322 following intraperitoneal administration of MRS2365 to mice; type: in vivo; details: for Plasma Concentration by Subject / Plasma Concentration Mean / Brain Concentration by Subject / Brain Concentration Mean: MRS4322 in mice after MRS2365 0.24 mg/kg i.p.; for Plasma Concentration by Subject / Brain Concentration by Subject: subjects A-C; for Plasma Concentration by Subject / Plasma Concentration Mean: BLQ = below 2.26 ng/mL; for Brain Concentration by Subject / Brain Concentration Mean: BLQ = below 9.40 ng/g
Description: Animals: Female C576BL/6J mice weighing approximately 0.02 Kg were used for this study, supplied by the University of Texas Health Sciences Center (San Antonio, TX). All studies were conducted under approved University of Texas Health Sciences Center IACUC protocols.
Drug Administration: MRS2365 was solubilized in phosphate-buffered saline and then diluted in phosphate-buffered saline to prepare dosing solution. Final dosing solution concentration of MRS2365 was 100 μM. A 100 μL volume of dosing solution was administered intraperitoneally to each mouse per 20 gram body weight; MRS2365 was administered intraperitoneally at 0.5 μmol/kg or 0.24 mg/kg. Three mice were administered MRS2365 for each sampling timepoint.
(§1) Tissue Sampling: Blood and brain samples were obtained at 0, 0.083, 0.25, 0.5, 1, 2 and 8 hours post-dose. At each timepoint, mice (3/timepoint) were euthanized in a […] chamber. Whole blood was obtained by cardiac puncture into Microtainer tubes containing heparin and immediately centrifuged for preparation of plasma; plasma was stored at −80° C. At each timepoint, whole brain samples were obtained by decapitation, rinsed in ice-cold phosphate-buffered saline and weighed. Brain samples were then immediately flash-frozen in liquid nitrogen and stored at −80° C.
(§2) The following table outlines the LC and MS/MS conditions employed:
The calibration range for the MRS4322 plasma concentration standard curve was 2.26-241 ng/mL. The calibration range for MRS4322 brain concentrations was 2.35-242 ng/mL.
(§3) For bioanalysis of brain concentrations of MRS4322, brain samples were homogenized in ice-cold phosphate-buffered saline in a 4× dilution. Aliquots of the resulting diluted brain homogenate were treated with acetonitrile and analyzed by LC-MS/MS. Because of the 4× homogenate dilution, the calibration range of the MRS4322 brain standard curve was translated to 9.40-968 ng/gm. In several samples, MRS4322 were detectable but fell below the brain LLOQ of 9.40 ng/gm but were above background; in these cases the final reported brain concentration was extrapolated based on MS peak heights.

[4] = Pharmacokinetics of MRS4322 following intraperitoneal administration to mice (plasma and brain concentrations); type: in vivo; details: MRS4322 […] i.p.; for Plasma Concentration Mean / Plasma Concentration by Subject: BLQ = below 2.40 ng/mL; for Brain Concentration Mean / Brain Concentration by Subject: BLQ = below 9.64 ng/g; for Plasma Concentration by Subject / Brain Concentration by Subject: subjects A-C
Description: Animals: Female C576BL/6J mice weighing approximately 0.02 kg were used for this study, supplied by the University of Texas Health Sciences Center (San Antonio, TX). All studies were conducted under approved University of Texas Health Sciences Center IACUC protocols.
Drug Administration: MRS4322 was solubilized in DMSO and then diluted in saline to prepare dosing solution. Final dosing solution concentration of MRS4322 was 100 μM. A 100 μL volume of dosing solution was administered intraperitoneally to each mouse per 20 gram body weight; MRS4322 was administered intraperitoneally at 0.16 mg/kg or 0.5 μmol/kg. Three mice were administered MRS4322 for each sampling timepoint.
as §1, §2
The calibration range for the MRS4322 plasma concentration standard curve was 2.42-242 ng/mL. The calibration range for MRS4322 brain concentrations was 2.41-233 ng/mL.
as §3, with “to 9.64-932” for “to 9.40-968”, “MRS4322 was” for “MRS4322 were”, “of 9.64” for “of 9.40”

- stability in phosphate-buffered saline [1]: completely stable
- metabolites observed (M2 = MRS2347, M1 = MRS4322) [2]: Two metabolites
Structure (SMILES): CSc1nc(N)c2ncn([C@H]3[C@H](O)[C@H](O)[C@]4(COP(=O)(O)OP(=O)(O)O)C[C@H]34)c2n1 [MRS2365]
- metabolic fate following intraperitoneal administration to mice ([3]; MRS2365 0.5 μmol/kg i.p., mice): rapidly and completely metabolized to MRS4322

- Plasma Concentration by Subject ([3]; 0 h): BLQ
- Plasma Concentration Mean ([3]; 0 h): BLQ
- Brain Concentration by Subject ([3]; 0.083 h): BLQ
- Brain Concentration Mean ([3]; 0.083 h): BLQ
- Brain Concentration by Subject ([3]; 1 h): BLQ
- Brain Concentration Mean ([3]; 1 h): BLQ
- Brain Concentration by Subject ([3]; 2 h): BLQ
- Brain Concentration Mean ([3]; 2 h): BLQ
- Plasma Concentration by Subject ([3]; 8 h): BLQ
- Brain Concentration by Subject ([3]; 8 h): BLQ
- Plasma Concentration Mean ([3]; 8 h): BLQ
- Brain Concentration Mean ([3]; 8 h): BLQ
- Plasma Concentration Mean ([4]; 0 h): BLQ
- Brain Concentration Mean ([4]; 0 h): BLQ
- Plasma Concentration by Subject ([4]; 0 h): BLQ
- Brain Concentration by Subject ([4]; 0 h): BLQ
- Brain Concentration Mean ([4]; 1 h): BLQ
- Brain Concentration by Subject ([4]; 1 h): BLQ
- Brain Concentration Mean ([4]; 2 h): BLQ
- Brain Concentration by Subject ([4]; 2 h): BLQ
- Plasma Concentration Mean ([4]; 8 h): BLQ
- Brain Concentration Mean ([4]; 8 h): BLQ
- Plasma Concentration by Subject ([4]; 8 h): BLQ
- Brain Concentration by Subject ([4]; 8 h): BLQ
Structure (SMILES): CSc1nc(N)c2ncn([C@H]3[C@H](O)[C@H](O)[C@]4(CO)C[C@H]34)c2n1 [MRS4322]
